From ChEMBL document CHEMBL1201862, “PubChem BioAssay data set” (2004)
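Cells were grown in 96-well plates and exposed to each compound for 48 hours at five concentrations; endpoints were interpolated linearly between bracketing concentrations, or set to the highest concentration if not reached. At the GI50, growth is halved.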 Calls of active or inactive are those of the source. Rule as the data show it: active = GI50 up to about 1.1 µM and inactive = higher.

Columns and labels:
Assay in all cases: inhibition of tumour cell growth, NCI panel, 48 h
A498 = test system: A498
CAKI-1 = test system: CAKI-1
HCT-15 = test system: HCT-15
HL-60 = test system: HL-60
HOP-62 = test system: HOP-62
K562 = test system: K562
KM12 = test system: KM12
LOX IMVI = test system: LOX IMVI
MDA-MB-231 = test system: MDA-MB-231
MDA-N = test system: MDA-N
MOLT-4 = test system: MOLT-4
NCI-H23 = test system: NCI-H23
NCI/ADR-RES = test system: NCI/ADR-RES
OVCAR-5 = test system: OVCAR-5
RPMI-8226 = test system: RPMI-8226
SK-MEL-28 = test system: SK-MEL-28
SNB-19 = test system: SNB-19
T47D = test system: T47D
UACC-257 = test system: UACC-257
UO-31 = test system: UO-31

Row | SMILES | GI50 (A498) | GI50 (CAKI-1) | GI50 (HCT-15) [µM] | GI50 (HL-60) | GI50 (HOP-62) | GI50 (K562) | GI50 (KM12) | GI50 (LOX IMVI) | GI50 (MDA-MB-231) | GI50 (MDA-N) | GI50 (MOLT-4) | GI50 (NCI-H23) | GI50 (NCI/ADR-RES) | GI50 (OVCAR-5) | GI50 (RPMI-8226) | GI50 (SK-MEL-28) | GI50 (SNB-19) | GI50 (T47D) | GI50 (UACC-257) | GI50 (UO-31)
1 | Cn1c(=O)c2nc(CS(=O)(=O)Cc3nc4c(=O)n(C)c(=O)n(C)c4[nH]3)[nH]c2n(C)c1=O | > 100 µM (inactive) | > 100 µM (inactive) | > 100 | > 100 µM (inactive) | > 100 µM (inactive) | > 100 µM (inactive) | > 100 µM (inactive) | > 100 µM (inactive) | 40.6 µM (inactive) | > 100 µM (inactive) | > 100 µM (inactive) | > 100 µM (inactive) | > 100 µM (inactive) | > 100 µM (inactive) | > 100 µM (inactive) | > 100 µM (inactive) | > 100 µM (inactive) | > 100 µM (inactive) | > 100 µM (inactive) | > 100 µM (inactive)
2 | NC(=O)C1CCCN1Cc1ccc2c(c1)OCO2 (centres undefined) | > 100 µM (inactive) | > 100 µM (inactive) | > 100 | > 100 µM (inactive) | > 100 µM (inactive) | > 100 µM (inactive) | > 100 µM (inactive) | > 100 µM (inactive) | > 100 µM (inactive) | > 100 µM (inactive) | > 100 µM (inactive) | > 100 µM (inactive) | > 100 µM (inactive) | > 100 µM (inactive) | > 100 µM (inactive) | > 100 µM (inactive) | > 100 µM (inactive) | > 100 µM (inactive) | > 100 µM (inactive) | > 100 µM (inactive)
3 | CC(=O)C(C(c1ccccc1)N1CCOCC1)N1CCOCC1 (centres undefined) | > 100 µM (inactive) | > 100 µM (inactive) | > 100 | > 100 µM (inactive) | > 100 µM (inactive) | > 100 µM (inactive) | > 100 µM (inactive) | > 100 µM (inactive) | > 100 µM (inactive) | > 100 µM (inactive) | > 100 µM (inactive) | > 100 µM (inactive) | > 100 µM (inactive) | > 100 µM (inactive) | > 100 µM (inactive) | > 100 µM (inactive) | > 100 µM (inactive) | > 100 µM (inactive) | 18.5 µM (inactive) | > 100 µM (inactive)
4 | CCCC(=O)Nc1cc([N+](=O)[O-])c([N+](=O)[O-])cc1OC | 15.7 µM (inactive) | 16 µM (inactive) | 8.87 | 13.1 µM (inactive) | 12.6 µM (inactive) | 17.5 µM (inactive) | 12.4 µM (inactive) | 2.79 µM (inactive) | 19.1 µM (inactive) | 15.1 µM (inactive) | > 10 µM (inactive) | 18.2 µM (inactive) | 39.5 µM (inactive) | 32.5 µM (inactive) | 19.8 µM (inactive) | 17 µM (inactive) | 17 µM (inactive) | 3.8 µM (inactive) | 18.3 µM (inactive) | 1.75 µM (inactive)
5 | COc1ccc(CC(=O)N2CCC3(C)CC(=O)CC=C23)cc1OC (centres undefined) | > 100 µM (inactive) | > 100 µM (inactive) | > 100 | > 100 µM (inactive) | 93.8 µM (inactive) | > 100 µM (inactive) | > 100 µM (inactive) | > 100 µM (inactive) | > 100 µM (inactive) | > 100 µM (inactive) | > 100 µM (inactive) | > 100 µM (inactive) | > 100 µM (inactive) | > 100 µM (inactive) | > 100 µM (inactive) | > 100 µM (inactive) | > 100 µM (inactive) | > 100 µM (inactive) | – | > 100 µM (inactive)
6 | Cc1cc(C)c(NC(=S)NC(=O)c2ccccc2)cc1C | > 100 µM (inactive) | > 100 µM (inactive) | 93.1 | > 100 µM (inactive) | > 100 µM (inactive) | 74 µM (inactive) | > 100 µM (inactive) | > 100 µM (inactive) | > 100 µM (inactive) | 78.9 µM (inactive) | 93.5 µM (inactive) | > 100 µM (inactive) | > 100 µM (inactive) | > 100 µM (inactive) | > 100 µM (inactive) | > 100 µM (inactive) | > 100 µM (inactive) | 55.7 µM (inactive) | 84.7 µM (inactive) | > 100 µM (inactive)
7 | Cc1ccc2c(c1)C(=O)c1[nH]c3ccc(F)cc3c1CO2 | 79.4 µM (inactive) | 27.5 µM (inactive) | > 100 | > 100 µM (inactive) | 10.1 µM (inactive) | 29 µM (inactive) | > 100 µM (inactive) | 21.5 µM (inactive) | > 100 µM (inactive) | > 100 µM (inactive) | 58.2 µM (inactive) | 25.2 µM (inactive) | 58.5 µM (inactive) | > 100 µM (inactive) | 39.9 µM (inactive) | 97.1 µM (inactive) | 14.3 µM (inactive) | 21.3 µM (inactive) | > 100 µM (inactive) | > 100 µM (inactive)
